Measured values reported in patent publication US9555061B2, “Synthesis and analysis of compounds capable of inducing differentiation of human mesenchymal stems cells into hepatocytes” (National University Corporation Torrori University, priority 2011, dated 2017).

Assays:
Type in all cases: cell-based, human
[1] = tested on: UE7T-13 cells; assay: Urea assay (UE7T-13); conditions: day 16
Experimental: The cells were plated on a 24-well plate, and were cultured in a medium containing IC-2, etc. Ammonium chloride (at a final concentration of 5 mM) was added to the medium, and the cells were cultured for 48, 72, and 96 h. Then, an amount of urea in the medium was determined using a QuantiChrom Urea Assay Kit (BioAssay Systems) and a fluorescence plate reader (TECAN) at a wavelength of 520 nm.

[2] = tested on: clinical specimen-derived mesenchymal stem cells; assay: PAS staining in clinical specimen-derived mesenchymal stem cells; conditions: day 8, PN-3-13 20 μM, IC-2 40 μM
Experimental: PAS staining was performed according to the following procedure. A cover glass that had been sterilized with 100% ethanol was placed on a 12-well plate. Cells were seeded on the cover glass at a cell density of 1.8×10^4 cells/cm^2. This day was designated as day 0. At day 1 corresponding to the next day, each medium was changed to a medium containing HC-2 (at a final concentration of 20 μM), PN-3-13 (at a final concentration of 20 μM), IC-2 (at a final concentration of 40 μM), or 0.1% DMSO. At day 4, the medium was changed in a manner similar to that at day 1, and the cells were cultured until day 8. At day 8, the cells were washed twice with PBS and were fixed with 4% paraformaldehyde for 30 min. As a negative control, α-amylase (Nacalai Tesque) at a final concentration of 10 mg/ml was added, and the cells were incubated therewith at 37° C. for 1 h to digest their glycogen. Subsequently, the cells were treated with 1% aqueous periodic acid for 5 min. Then, the cells were treated with a Schiff reagent (Nacalai Tesque) for 15 min to stain glycogen. After that, the cells were washed three times with aqueous sulfurous acid and were then washed three times with distilled water. The nuclei were stained with Mayer's Hematoxylin (MUTO PURE CHEMICALS CO., LTD.) for 1 min. […]

[3] = tested on: UE7T-13 cells; assay: Immunocytochemistry of hepatocyte markers (UE7T-13); conditions: day 16
Experimental: A cover glass (22×22 mm, […]) was sterilized with 70% EtOH and placed in a 6-well plate. Next, cells were seeded on the cover glass and cultured in a medium containing IC-2, etc. At 8, 16, and […] after the initiation of the culture, the cells were washed twice with PBS. Then, the cells were treated with 4% paraformaldehyde/PBS for 20 min and fixed onto the cover glass. After that, the cells were permeated with 0.2% Triton X-100 for 10 min. Subsequently, the cells were blocked with 3% BSA/PBS for 30 min. An anti-albumin antibody, anti-C/EBP antibody, anti-AFP antibody, or anti-CYP1A1 antibody was used as a primary antibody, and the cells were incubated therewith at 4° C. overnight. Next, an Alexa Fluoro 488 goat anti-mouse antibody or Alexa Fluoro 594 goat anti-rabbit antibody was used as a secondary antibody, and the cells were incubated therewith at room temperature for 1 h. DAPI was used for nuclear staining. Thereafter, 50% glycerol diluted with PBS was used to mount the cover glass. Finally, the cells were observed under a confocal laser microscope. The cells which had been cultured with 0.1% DMSO were used as a control.

[4] = tested on: clinical specimen-derived mesenchymal stem cells; assay: RT-PCR of hepatocyte differentiation marker in clinical specimen-derived mesenchymal stem cells; conditions: hexachlorophene 4 μM, HC-2 20 μM, PN-3-13 20 μM, IC-2 40 μM
Experimental: A fresh bone marrow aspirate was collected under informed consent from a patient (a person) with osteoarthritis who underwent replacement arthroplasty at the Department of Orthopedic Surgery, Tottori University Hospital. This aspirate was subjected to density gradient centrifugation using ficoll (Amersham Biosciences) to separate bone marrow mononuclear cells (FIG. 31). These bone marrow mononuclear cells were suspended in 1 ml of Hanks' balanced salt solution (HBSS, Gibco, Life Technologies Corp.) supplemented with a 100-fold diluted APC-labeled anti-CD90 antibody, a 407-fold diluted PE-labeled anti-CD271 antibody, and 2% fetal bovine serum (FBS, Defined, Thermo Fisher Scientific Inc.), and were stained on ice for 30 min. A flow cytometer (MoFlo XDP, Beckman Coulter Inc.) was used to selectively separate mesenchymal stem cells. The resulting cells were cultured in Dulbecco's Modified Eagle's Medium (Low Glucose, Gibco, Life Technologies Corp.) containing 20% FBS, 100 U/ml penicillin, […] streptomycin (Nacalai Tesque), and 20 ng/ml basic fibroblast growth factor (TRANS GENIC INC., Ltd.) on a 35-mm dish under conditions at 37° C. and 5% CO2. The medium was changed every 4 days. After colonies were formed, the cells were detached using a 0.025% trypsin/1 mM EDTA solution (Nacalai Tesque), split on a 100-mm dish, and cultured under conditions at 37° C. and 5% CO2. Then, the cells which were kept 70 to 80% confluent were detached using trypsin treatment. These cells in one dish were divided into four dishes for passage.
Cells were seeded on a 6-well plate at a cell density of 1.8×10^4 cells/cm^2. This day was designated as day 0. At day 1 corresponding to the next day, the medium was changed to a medium containing any one of hexachlorophene (at a final concentration of 4 μM), HC-2 (at a final concentration of 20 μM), PN-3-13 (at a final concentration of 20 μM), IC-2 (at a final concentration of 40 μM), and 0.1% DMSO. […]

(6S,9aS)-6-phenyl-8-naphthalen-1-ylmethyl-4,7-dioxo-hexahydro-pyrazino[1,2-a]pyrimidine-1-carbocylic acid benzylamide [IC-2]
cellular urea synthesis compared with negative control (0.1% DMSO) [1]: remarkably increased | cellular glycogen accumulation compared with negative control (0.1% DMSO) [2]: apparent increase | levels of expression of albumin, C/EBPα, CYP1A1, and CYP3A4 [3]: remarkably increased | expression of albumin [4]: induced
